According to patent publication US20060128792A1, “Deguelin as a chemopreventive agent for lung cancer” (priority 2002, published 2006):
Values joined by “and” are separate entries in the source; they are usually repeats but may differ in a detail not shown here. Identical values can stand only once. Like-named read-outs stand apart in the source and are kept apart here.

What was measured:
[1] = test system: premalignant (1799, 1198) and malignant (1170) HBE cell lines; assay: MTT assay, growth of premalignant and malignant HBE cell lines; assay type: cell-based; conditions: premalignant and malignant HBE cells; unpublished data
Source text: Cells and Cell Cultures. […] Tumors developed 6 months later. […] (Klein-Szanto et al., 1992).

NHBE = assay: MTT assay, growth inhibition / viability of normal HBE cells
Description: Cells and Cell Cultures. […] Normal HBE (NHBE) cells were purchased from Clontech (Palo Alto, Calif.). […] Cells were grown on tissue culture plasticware (Falcon; Bector, Dickinson, Bedford, Mass.) at 37° C. in a humidified atmosphere with 5% C02. For the analyses of growth inhibition, cell cycle, and induction of apoptosis by deguelin, NHBE cells, HBE cell lines, and squamous HBE cells were cultured in KSFM (Life Technologies) containing 2 μg/ml of EGF and bovine pitutary extract.
Cell Treatment with Deguelin and Determination of Growth Inhibition. To measure the effects of deguelin on cell proliferation, NHBE, 1799 cells, 1198 cells, and 1170 cells were transferred onto 96-well plates at densities ranging from 2×10^3 to 4×10^3 cells/well. After 1 day, the cells were changed to the fresh medium containing various concentrations of deguelin dissolved in DMSO (final concentration, 0.1%). Control cultures received 0.1% dimethyl sulfoxide (DMSO) as did the deguelin-treated cultures. […] After 1 day of infection, cells were treated with 10^−7 M or 10^−6 M of deguelin, or 0.1% DMSO as a control, and then incubated for 2 days. […] Six replicate wells were used for each analysis.

H1299 = assay: MTT assay, growth inhibition by deguelin or deguelin derivatives; assay type: cell-based; conditions: 3 days
H596 = assay: as above; assay type: cell-based; conditions: 3 days
H460 = assay: as above; assay type: cell-based; conditions: 3 days
H358 = assay: as above; assay type: cell-based; conditions: 3 days
A549 = assay: as above; assay type: cell-based; conditions: 3 days
H322 = assay: as above; assay type: cell-based; conditions: 3 days
NSCLC cells = assay: MTT assay, growth inhibition of NSCLC cells by deguelin and deguelin derivatives (Table 2, FIG. 7); assay type: cell-based; conditions: 0.01-1 μM, 3 days
[2] = test system: ovarian, breast and lung cancers; conditions: cited from earlier work
[3] = test system: genes controlled by the TPA response element (TRE); conditions: cited from earlier work

O=c1cc(N2CCOCC2)oc2c(-c3ccccc3)cccc12 [LY294002, reference compound]
concentration required to induce detectable cell growth inhibition [1]: more than 10 μM
cytotoxicity on NHBE cells (NHBE): significant cytotoxicity

methoxyrot-2′-enoic acid
% control (H1299; H1299, 0.01 μM): 0.48%
MTT assay reading, Average (H1299; H1299, 0.01 μM): 0.7507
MTT assay reading, individual replicate (H1299; H1299, 0.01 μM): 0.707 and 0.725 and 0.796 and 0.793 and 0.86 and 0.656 and 0.718
% control (H1299; H1299, 0.1 μM): 0.29%
MTT assay reading, Average (H1299; H1299, 0.1 μM): 0.4579
MTT assay reading, individual replicate (H1299; H1299, 0.1 μM): 0.401 and 0.474 and 0.434 and 0.387 and 0.526 and 0.465 and 0.518
% control (H1299; H1299, 0.5 μM): 0.25%
MTT assay reading, Average (H1299; H1299, 0.5 μM): 0.3934
MTT assay reading, individual replicate (H1299; H1299, 0.5 μM): 0.425 and 0.405 and 0.342 and 0.497 and 0.278 and 0.503 and 0.304
% control (H1299; H1299, 1 μM): 0.22%
MTT assay reading, Average (H1299; H1299, 1 μM): 0.3396
MTT assay reading, individual replicate (H1299; H1299, 1 μM): 0.29 and 0.384 and 0.395 and 0.301 and 0.289 and 0.346 and 0.372
% control (H596; H596, 0.01 μM): 6%
MTT assay reading, Average (H596; H596, 0.01 μM): 0.0931
MTT assay reading, individual replicate (H596; H596, 0.01 μM): 0.037 and 0.055 and 0.067 and 0.122 and 0.101 and 0.118
% control (H596; H596, 0.1 μM): 20%
MTT assay reading, Average (H596; H596, 0.1 μM): 0.3181
MTT assay reading, individual replicate (H596; H596, 0.1 μM): 0.287 and 0.3 and 0.326 and 0.366 and 0.289 and 0.321 and 0.338
% control (H596; H596, 0.5 μM): 23%
MTT assay reading, Average (H596; H596, 0.5 μM): 0.3653
MTT assay reading, individual replicate (H596; H596, 0.5 μM): 0.28 and 0.434 and 0.344 and 0.446 and 0.348 and 0.383 and 0.322
% control (H596; H596, 1 μM): 26%
MTT assay reading, Average (H596; H596, 1 μM): 0.405
MTT assay reading, individual replicate (H596; H596, 1 μM): 0.422 and 0.37 and 0.481 and 0.573 and 0.319 and 0.328 and 0.342
% control (H460; H460, 0.01 μM): 0.11%
MTT assay reading, Average (H460; H460, 0.01 μM): 0.1897
MTT assay reading, individual replicate (H460; H460, 0.01 μM): 0.037 and 0.62 and 0.096 and 0.098 and 0.122 and 0.16 and 0.195
% control (H460; H460, 0.1 μM): 0.08%
MTT assay reading, Average (H460; H460, 0.1 μM): 0.1399
MTT assay reading, individual replicate (H460; H460, 0.1 μM): 0.139 and 0.105 and 0.129 and 0.16 and 0.133 and 0.147 and 0.166
% control (H460; H460, 0.5 μM): 0.16%
MTT assay reading, Average (H460; H460, 0.5 μM): 0.2786
MTT assay reading, individual replicate (H460; H460, 0.5 μM): 0.297 and 0.26 and 0.302 and 0.283 and 0.291 and 0.282 and 0.235
% control (H460; H460, 1 μM): 0.17%
MTT assay reading, Average (H460; H460, 1 μM): 0.2933
MTT assay reading, individual replicate (H460; H460, 1 μM): 0.276 and 0.322 and 0.282 and 0.298 and 0.311 and 0.29 and 0.274
% control (H358; H358, 0.01 μM): 69%
MTT assay reading, Average (H358; H358, 0.01 μM): 0.5804
MTT assay reading, individual replicate (H358; H358, 0.01 μM): 0.414 and 0.525 and 0.579 and 0.603 and 0.68 and 0.612 and 0.65
% control (H358; H358, 0.1 μM): 29%
MTT assay reading, Average (H358; H358, 0.1 μM): 0.2433
MTT assay reading, individual replicate (H358; H358, 0.1 μM): 0.196 and 0.173 and 0.287 and 0.284 and 0.293 and 0.247 and 0.223
% control (H358; H358, 0.5 μM): 34%
MTT assay reading, Average (H358; H358, 0.5 μM): 0.2884
MTT assay reading, individual replicate (H358; H358, 0.5 μM): 0.212 and 0.331 and 0.284 and 0.282 and 0.478 and 0.2 and 0.232
% control (H358; H358, 1 μM): 36%
MTT assay reading, Average (H358; H358, 1 μM): 0.3047
MTT assay reading, individual replicate (H358; H358, 1 μM): 0.283 and 0.248 (2×) and 0.306 and 0.3 and 0.343 and 0.405
MTT assay reading, Average (A549; A549, 0.01 μM): 0.2983
MTT assay reading, individual replicate (A549; A549, 0.01 μM): 0.286 and 0.219 and 0.272 and 0.298 and 0.36 and 0.344 and 0.309
MTT assay reading, Average (A549; A549, 0.1 μM): 0.6833
MTT assay reading, individual replicate (A549; A549, 0.1 μM): 0.693 and 0.467 and 0.636 and 0.687 and 0.753 and 0.796 and 0.751
MTT assay reading, Average (A549; A549, 0.5 μM): 0.5794
MTT assay reading, individual replicate (A549; A549, 0.5 μM): 0.542 and 0.837 and 0.514 and 0.534 and 0.588 and 0.579 and 0.462
MTT assay reading, Average (A549; A549, 1 μM): 0.6031
MTT assay reading, individual replicate (A549; A549, 1 μM): 0.783 and 0.583 and 0.67 and 0.758 and 0.515 and 0.477 and 0.436
% control (H322; H322, 0.01 μM): 97%
MTT assay reading, Average (H322; H322, 0.01 μM): 0.8434
MTT assay reading, individual replicate (H322; H322, 0.01 μM): 0.729 and 0.806 and 0.748 and 0.791 and 0.898 and 1.011 and 0.921
% control (H322; H322, 0.1 μM): 55%
MTT assay reading, Average (H322; H322, 0.1 μM): 0.4803
MTT assay reading, individual replicate (H322; H322, 0.1 μM): 0.322 and 0.412 and 0.406 and 0.52 and 0.585 and 0.58 and 0.537
% control (H322; H322, 0.5 μM): 43%
MTT assay reading, Average (H322; H322, 0.5 μM): 0.3787
MTT assay reading, individual replicate (H322; H322, 0.5 μM): 0.32 and 0.314 and 0.388 and 0.393 and 0.466 and 0.443 and 0.327
% control (H322; H322, 1 μM): 40%
MTT assay reading, Average (H322; H322, 1 μM): 0.3461
MTT assay reading, individual replicate (H322; H322, 1 μM): 0.271 and 0.348 and 0.409 and 0.352 and 0.361 and 0.324 and 0.358
inhibiting cell growth in NSCLC cells, ranking among the derivatives (NSCLC cells): most effective

CC(=O)O[C@H]1C(=O)[C@@]2(C)[C@H]([C@H](OC(=O)c3ccccc3)[C@]3(O)C[C@H](OC(=O)[C@H](O)[C@@H](NC(=O)c4ccccc4)c4ccccc4)C(C)=C1C3(C)C)[C@]1(OC(C)=O)CO[C@@H]1C[C@@H]2O [taxol, Paclitaxel]
response rate ([2]; advanced drug refractory ovarian cancer): 19-36%
response rate ([2]; previously treated metastatic breast cancer): 27-62%
response rate ([2]; various lung cancers): 21-37%

N#CC(=C(N)Sc1ccccc1N)C(C#N)=C(N)Sc1ccccc1N [U0126, 1,4diamino-2,3-dicyano-1,4 bis[2-aminophenylthio]butadiene]
concentration inhibiting PMA-induction of TRE-controlled genes [3]: 1 to 2 µM
